Values of other authors as cited in PMC3341666 (Biochemistry, 2009).

What was measured:
[1] = target: Prostate-Specific Antigen (PSA) (Homo sapiens, UniProt P07288); settings: introduction statement, no reference given
Bovine α-Chymotrypsin = Bovine α-Chymotrypsin (Bos taurus, UniProt P00766); settings: previous study

Chain of Prostate-Specific Antigen (PSA) (P07288 25-261): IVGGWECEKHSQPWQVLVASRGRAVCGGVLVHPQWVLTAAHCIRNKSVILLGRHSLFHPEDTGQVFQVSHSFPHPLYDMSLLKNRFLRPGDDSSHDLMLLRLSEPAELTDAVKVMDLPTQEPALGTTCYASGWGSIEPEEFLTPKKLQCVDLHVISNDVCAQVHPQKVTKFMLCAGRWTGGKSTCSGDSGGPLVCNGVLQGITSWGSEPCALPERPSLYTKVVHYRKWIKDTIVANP

fold higher Ki for chymotrypsin (vs PSA) (Bovine α-Chymotrypsin)	Compound	PSA inhibition (in words) [1]
–	O=S(=O)(F)Cc1ccccc1 [PMSF, phenylmethylsulphonyl fluoride]	poor PSA inhibitors
–	Cc1ccc(S(=O)(=O)N[C@@H](Cc2ccccc2)C(=O)CCl)cc1 [TPCK, tosyl-phenylalanine chloromethylketone]	poor PSA inhibitors
~ 65 fold	Z-SSKL(boro)L	–
